Like-named read-outs stand apart in the source and are kept apart here.
Experiments:
Assay in all cases: HotSpot kinase profiling
Assay type in all cases: biochemical
ARAF = molecular target: T1, ARAF (Homo sapiens, UniProt P10398)
T1 construct: purchased Reaction Biology Corp
T1 sequence (P10398 1-606): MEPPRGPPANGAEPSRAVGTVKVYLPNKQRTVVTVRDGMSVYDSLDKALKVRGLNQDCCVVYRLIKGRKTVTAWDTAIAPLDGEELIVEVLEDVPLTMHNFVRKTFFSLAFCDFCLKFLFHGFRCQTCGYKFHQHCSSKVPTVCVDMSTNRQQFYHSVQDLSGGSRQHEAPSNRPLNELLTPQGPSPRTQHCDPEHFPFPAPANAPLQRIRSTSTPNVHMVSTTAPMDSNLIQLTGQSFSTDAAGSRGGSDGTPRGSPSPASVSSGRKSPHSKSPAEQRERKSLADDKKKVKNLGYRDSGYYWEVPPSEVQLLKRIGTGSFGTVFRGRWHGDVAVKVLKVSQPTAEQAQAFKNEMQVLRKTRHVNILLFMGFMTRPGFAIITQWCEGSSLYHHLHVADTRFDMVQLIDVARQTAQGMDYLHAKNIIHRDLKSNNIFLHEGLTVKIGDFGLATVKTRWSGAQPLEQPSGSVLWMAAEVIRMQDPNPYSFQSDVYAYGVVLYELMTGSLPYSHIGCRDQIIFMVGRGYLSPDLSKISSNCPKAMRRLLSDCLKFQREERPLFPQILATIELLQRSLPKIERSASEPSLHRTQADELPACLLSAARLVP
In short: (§1)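 Percent inhibition, averaged when run more than once and referenced to a DMSO negative control, came from a radioactive filter-binding readout on P81 paper. Reactions of kinase with freshly made substrate and cofactors ran for 2 h at room temperature.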

CAMK2g = molecular target: T2, CAMK2g (Homo sapiens, UniProt Q13555)
T2 construct: purchased Reaction Biology Corp
In short: as §1

LOK/STK10 = molecular target: T3, LOK/STK10 (Homo sapiens, UniProt O94804)
T3 construct: purchased Reaction Biology Corp
In short: as §1

BRSK1 = molecular target: T4, BRSK1 (Homo sapiens, UniProt Q8TDC3)
T4 construct: purchased Reaction Biology Corp
T4 sequence (Q8TDC3 1-778): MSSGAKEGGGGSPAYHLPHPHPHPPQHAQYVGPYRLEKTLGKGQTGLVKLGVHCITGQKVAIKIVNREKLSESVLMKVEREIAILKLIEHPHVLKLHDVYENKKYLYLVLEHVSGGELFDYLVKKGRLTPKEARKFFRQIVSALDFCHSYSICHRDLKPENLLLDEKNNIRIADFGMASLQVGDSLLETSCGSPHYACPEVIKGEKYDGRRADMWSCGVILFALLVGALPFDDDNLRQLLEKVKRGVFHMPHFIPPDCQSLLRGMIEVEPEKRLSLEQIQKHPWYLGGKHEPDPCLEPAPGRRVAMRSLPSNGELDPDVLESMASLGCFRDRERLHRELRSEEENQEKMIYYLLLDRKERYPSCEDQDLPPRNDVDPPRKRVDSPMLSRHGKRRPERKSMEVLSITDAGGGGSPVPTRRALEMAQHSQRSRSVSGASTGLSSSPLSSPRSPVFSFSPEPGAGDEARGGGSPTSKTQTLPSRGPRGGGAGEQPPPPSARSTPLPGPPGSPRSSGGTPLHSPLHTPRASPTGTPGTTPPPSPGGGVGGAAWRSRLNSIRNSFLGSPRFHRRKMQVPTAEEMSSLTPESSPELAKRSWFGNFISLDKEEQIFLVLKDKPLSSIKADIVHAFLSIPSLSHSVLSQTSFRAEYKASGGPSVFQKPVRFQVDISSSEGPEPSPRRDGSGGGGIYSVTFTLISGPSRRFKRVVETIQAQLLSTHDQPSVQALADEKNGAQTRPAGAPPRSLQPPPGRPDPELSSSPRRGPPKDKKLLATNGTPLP
In short: as §1

NEK2 = molecular target: T5, NEK2 (Homo sapiens, UniProt P51955)
T5 construct: purchased Reaction Biology Corp
T5 sequence (P51955 1-445): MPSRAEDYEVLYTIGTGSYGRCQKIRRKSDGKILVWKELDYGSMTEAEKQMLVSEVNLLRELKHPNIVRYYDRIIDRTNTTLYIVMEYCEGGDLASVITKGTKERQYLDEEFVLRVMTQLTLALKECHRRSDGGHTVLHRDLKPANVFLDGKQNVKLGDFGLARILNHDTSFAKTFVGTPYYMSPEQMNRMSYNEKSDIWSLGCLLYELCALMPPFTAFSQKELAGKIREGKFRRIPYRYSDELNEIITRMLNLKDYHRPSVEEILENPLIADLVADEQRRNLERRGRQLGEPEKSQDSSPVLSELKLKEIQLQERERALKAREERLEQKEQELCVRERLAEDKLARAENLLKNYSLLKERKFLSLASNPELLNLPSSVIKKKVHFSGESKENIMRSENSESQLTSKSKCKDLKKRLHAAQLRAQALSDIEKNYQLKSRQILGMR
In short: as §1

DAPK1 = molecular target: T6, DAPK1 (Homo sapiens, UniProt P53355)
T6 construct: purchased Reaction Biology Corp
In short: as §1

[1] = read-out: % Enzyme Activity (relative to DMSO controls) Run 1
[2] = read-out: % Enzyme Activity (relative to DMSO controls) Run 2

T6 sequence (P53355 whole entry): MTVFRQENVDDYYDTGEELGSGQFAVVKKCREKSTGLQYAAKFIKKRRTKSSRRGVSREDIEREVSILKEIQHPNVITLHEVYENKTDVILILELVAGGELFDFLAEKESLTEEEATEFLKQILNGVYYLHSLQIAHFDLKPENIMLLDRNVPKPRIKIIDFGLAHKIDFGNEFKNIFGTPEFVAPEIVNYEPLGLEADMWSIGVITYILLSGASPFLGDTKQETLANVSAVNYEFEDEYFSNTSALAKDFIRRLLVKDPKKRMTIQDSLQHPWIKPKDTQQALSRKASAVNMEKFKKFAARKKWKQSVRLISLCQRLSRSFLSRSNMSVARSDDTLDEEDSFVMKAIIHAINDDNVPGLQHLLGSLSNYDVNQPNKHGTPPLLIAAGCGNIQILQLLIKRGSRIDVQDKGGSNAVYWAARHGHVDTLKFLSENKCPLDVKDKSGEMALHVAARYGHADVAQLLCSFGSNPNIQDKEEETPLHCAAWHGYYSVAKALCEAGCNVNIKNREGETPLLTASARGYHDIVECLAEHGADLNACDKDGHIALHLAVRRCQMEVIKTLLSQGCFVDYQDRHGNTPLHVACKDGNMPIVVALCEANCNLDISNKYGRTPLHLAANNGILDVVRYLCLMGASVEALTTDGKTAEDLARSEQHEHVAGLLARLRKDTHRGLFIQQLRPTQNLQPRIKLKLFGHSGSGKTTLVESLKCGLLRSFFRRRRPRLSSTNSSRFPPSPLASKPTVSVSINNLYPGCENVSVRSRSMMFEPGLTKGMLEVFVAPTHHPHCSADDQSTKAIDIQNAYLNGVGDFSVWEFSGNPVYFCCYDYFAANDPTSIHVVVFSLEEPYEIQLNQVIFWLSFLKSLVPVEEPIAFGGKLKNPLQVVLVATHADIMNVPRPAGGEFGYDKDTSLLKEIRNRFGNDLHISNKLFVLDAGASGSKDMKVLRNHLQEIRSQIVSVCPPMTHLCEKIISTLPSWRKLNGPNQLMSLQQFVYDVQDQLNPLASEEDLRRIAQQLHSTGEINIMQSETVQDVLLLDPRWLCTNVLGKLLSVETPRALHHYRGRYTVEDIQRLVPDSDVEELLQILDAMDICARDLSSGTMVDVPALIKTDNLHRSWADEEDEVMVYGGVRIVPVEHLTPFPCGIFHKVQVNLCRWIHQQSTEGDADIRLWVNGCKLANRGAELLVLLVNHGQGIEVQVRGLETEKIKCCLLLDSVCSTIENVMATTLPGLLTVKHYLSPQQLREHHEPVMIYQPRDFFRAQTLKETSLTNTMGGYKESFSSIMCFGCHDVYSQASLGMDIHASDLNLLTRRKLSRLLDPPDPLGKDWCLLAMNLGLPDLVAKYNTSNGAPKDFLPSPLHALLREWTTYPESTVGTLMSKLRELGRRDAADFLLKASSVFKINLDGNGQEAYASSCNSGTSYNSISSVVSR
T3 sequence (O94804 whole entry): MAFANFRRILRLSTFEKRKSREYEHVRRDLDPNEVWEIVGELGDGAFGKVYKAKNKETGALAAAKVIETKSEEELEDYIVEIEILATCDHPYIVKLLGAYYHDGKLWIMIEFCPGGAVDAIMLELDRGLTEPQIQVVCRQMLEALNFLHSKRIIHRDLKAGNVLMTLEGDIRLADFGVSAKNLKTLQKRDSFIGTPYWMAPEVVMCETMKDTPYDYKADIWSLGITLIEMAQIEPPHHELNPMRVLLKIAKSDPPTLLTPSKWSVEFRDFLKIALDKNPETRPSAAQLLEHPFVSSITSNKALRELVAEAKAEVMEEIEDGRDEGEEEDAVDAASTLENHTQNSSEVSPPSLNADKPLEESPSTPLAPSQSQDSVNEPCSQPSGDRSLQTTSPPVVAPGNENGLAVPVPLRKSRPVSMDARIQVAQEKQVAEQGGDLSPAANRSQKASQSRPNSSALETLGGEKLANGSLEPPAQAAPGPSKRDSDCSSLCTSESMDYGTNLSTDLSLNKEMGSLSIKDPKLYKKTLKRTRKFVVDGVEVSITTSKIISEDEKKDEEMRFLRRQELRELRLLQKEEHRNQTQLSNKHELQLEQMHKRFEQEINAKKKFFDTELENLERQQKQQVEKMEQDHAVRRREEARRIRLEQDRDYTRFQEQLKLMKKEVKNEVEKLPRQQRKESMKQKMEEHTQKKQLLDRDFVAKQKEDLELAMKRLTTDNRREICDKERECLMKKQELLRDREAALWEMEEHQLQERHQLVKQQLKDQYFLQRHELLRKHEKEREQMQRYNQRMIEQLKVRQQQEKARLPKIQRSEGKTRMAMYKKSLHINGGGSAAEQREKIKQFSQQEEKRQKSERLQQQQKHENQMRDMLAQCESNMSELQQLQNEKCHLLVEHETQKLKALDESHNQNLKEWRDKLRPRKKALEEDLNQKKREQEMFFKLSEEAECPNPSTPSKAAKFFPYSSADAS
T2 sequence (Q13555 whole entry): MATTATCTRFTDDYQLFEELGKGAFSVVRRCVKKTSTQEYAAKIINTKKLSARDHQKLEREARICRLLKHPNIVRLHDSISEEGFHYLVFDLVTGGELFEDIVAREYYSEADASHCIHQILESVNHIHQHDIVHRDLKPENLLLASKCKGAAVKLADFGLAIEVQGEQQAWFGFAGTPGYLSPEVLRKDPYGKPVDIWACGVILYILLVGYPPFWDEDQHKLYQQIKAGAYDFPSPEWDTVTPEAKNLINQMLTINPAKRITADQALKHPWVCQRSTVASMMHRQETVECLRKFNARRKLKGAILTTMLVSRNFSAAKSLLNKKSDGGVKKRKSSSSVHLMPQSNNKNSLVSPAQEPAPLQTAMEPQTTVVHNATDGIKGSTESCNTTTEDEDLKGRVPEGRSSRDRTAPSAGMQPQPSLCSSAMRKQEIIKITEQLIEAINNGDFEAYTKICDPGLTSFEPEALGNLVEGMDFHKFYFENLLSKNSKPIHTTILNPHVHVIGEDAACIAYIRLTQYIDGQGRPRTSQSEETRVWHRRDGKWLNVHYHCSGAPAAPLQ

C=CC(=O)Nc1cccc(Nc2nc(Nc3ccc(OCCOC)c(F)c3)ncc2F)c1 [Compound 2]
inhibition at 3 µM (ARAF): -1.47%
remaining activity at 3 µM (ARAF; [1]): 103%
remaining activity at 3 µM (ARAF; [2]): 100%
inhibition at 3 µM (CAMK2g): -7.18%
remaining activity at 3 µM (CAMK2g; [1]): 104%
remaining activity at 3 µM (CAMK2g; [2]): 111%
inhibition at 3 µM (LOK/STK10): 56.9%
remaining activity at 3 µM (LOK/STK10; [1]): 43.1%
remaining activity at 3 µM (LOK/STK10; [2]): 43%
inhibition at 3 µM (BRSK1): 11.8%
remaining activity at 3 µM (BRSK1; [1]): 87.1%
remaining activity at 3 µM (BRSK1; [2]): 89.4%
inhibition at 3 µM (NEK2): -4.44%
remaining activity at 3 µM (NEK2; [1]): 102%
remaining activity at 3 µM (NEK2; [2]): 107%
inhibition at 3 µM (DAPK1): 1.86%
remaining activity at 3 µM (DAPK1; [1]): 103%
remaining activity at 3 µM (DAPK1; [2]): 93.5%

Source: US9492471B2, “Methods of treating a disease or disorder associated with Bruton'S Tyrosine Kinase” (Celgene Avilomics Research, Inc., priority 2013, dated 2016)
